Publication PMC7504088, ““Clicking” an Ionic Liquid to a Potent Antimicrobial Peptide: On the Route towards Improved Stability” (International Journal of Molecular Sciences, 2020)
Marks after values point to notes of the source that are not given here. Ends that are not written are not given here. Peptide text beside a SMILES is read from it. * marks the point of attachment. X1 = C[n+]1ccn(Cc2cn(CC(=O)*)nn2)c1

Tests used:
[1] = tested on: E. coli EC002 (MDR clinical isolate); format: cell-based, Escherichia coli
Description: (§1) Both the conjugate MeIm-3.1-PP4 and its parent peptide 3.1-PP4 were next screened for their antibacterial activity. Minimum inhibitory concentration (MIC) values were determined following the Clinical and Laboratory Standards Institute (CLSI) protocol, against Gram-positive (Staphylococcus aureus and Enterococcus faecalis), and Gram-negative (Pseudomonas aeruginosa, Escherichia coli and Klebsiella pneumoniae) bacteria, including both reference strains (American Type Culture Collection, ATCC), and multidrug-resistant (MDR) clinical isolates. […] Relevantly, in most cases, MIC values matched the minimum bactericidal concentration (MBC) values, highlighting a bactericidal action for both MeIm-3.1-PP4 and its parent peptide.
(§2) The MIC of the test compounds was determined according to the CLSI guidelines. Briefly, the compounds were tested in the 1–1024 µg/mL concentration range, using the microdilution method in cation-adjusted Mueller-Hinton broth (MHB II) against reference strains of P. aeruginosa ATCC 27853, E. coli ATCC 25922, S. aureus ATCC 25923, and Enterococcus faecalis ATCC 29212. MIC values were also determined against MDR clinical isolates (antibiotic resistance patterns given in Supplementary Materials, Table S1) of P. aeruginosa (PA004, Pa3, Pa4), E. coli (Ec2, EC001, EC002, EC003), K. pneumoniae (KP004, KP010), S. aureus (SA007), and Enterococcus faecalis (Ef1). Along with the MIC values, MBC values were also determined as previously reported.

E. coli ATCC 25922 = format: cell-based, Escherichia coli
Description: as §1, §2

[2] = tested on: E. coli Ec2 (MDR clinical isolate); format: cell-based, Escherichia coli
Description: as §1, §2

[3] = tested on: E. coli EC001 (MDR clinical isolate); format: cell-based, Escherichia coli
Description: as §1, §2

[4] = tested on: E. coli EC003 (MDR clinical isolate); format: cell-based, Escherichia coli
Description: as §1, §2

tyrosinase = experiment: in vitro; format: in vitro ADME; conditions: mushroom (Agaricus bisporus), isolated enzyme, pH 6.8
Source text: One of our main motivations to explore IL-peptide conjugates concerns improving the enzymatic stability of the peptide moiety, as poor pharmacokinetics is a major obstacle towards clinical translation of AMP and other bioactive peptides, even when topical applications are envisaged. For instance, in a non-healing infected wound, peptides are vulnerable to modification by endogenous (e.g., tyrosinase, elastase, metalloproteinases) and exogenous (produced by colonizing microbes) enzymes in the wound site. […] The samples were collected at different time points, for 24 h, and were analyzed by HPLC. […]
The IL-peptide conjugate and the parent peptide were both incubated at a final concentration of 10 mM in phosphate buffer (pH 6.8), with the enzyme tyrosinase (CAS:9002-10-2; T3824-250KU) at 18 U/mL, for 24 h at 37 °C. […] The supernatant was then analyzed by HPLC, using a Hitachi-Merck LaChrom Elite system with a reverse-phase C18 column (125 × […] and 5 µm pore size). […]
Results from peptide stability were expressed as the variation of the % of starting compound over time (mean ± SD). Data were analyzed in GraphPad Prism 8.0.1 Software using two-way analysis of variance (ANOVA) followed by Tukey’s multiple comparison test. […]

[5] = tested on: P. aeruginosa Pa3 (MDR clinical isolate); format: cell-based, Pseudomonas aeruginosa
Description: as §1, §2

[6] = tested on: P. aeruginosa Pa4 (MDR clinical isolate); format: cell-based, Pseudomonas aeruginosa
Description: as §1, §2

P. aeruginosa ATCC 27853 = format: cell-based, Pseudomonas aeruginosa
Description: as §1, §2

[7] = tested on: P. aeruginosa PA004 (MDR clinical isolate); format: cell-based, Pseudomonas aeruginosa
Description: as §1, §2

[8] = tested on: K. pneumoniae KP010 (MDR clinical isolate); format: cell-based, Klebsiella pneumoniae
Description: as §1, §2

[9] = tested on: K. pneumoniae KP004 (MDR clinical isolate); format: cell-based, Klebsiella pneumoniae
Description: as §1, §2

S. aureus ATCC 25923 = format: cell-based, Staphylococcus aureus
Description: as §1, §2

[10] = tested on: S. aureus SA007 (MDR clinical isolate); format: cell-based, Staphylococcus aureus
Description: as §1, §2

[11] = tested on: Enterococcus faecalis ATCC 29212; format: cell-based
Description: as §1, §2

[12] = tested on: Enterococcus faecalis Ef1 (MDR clinical isolate); format: cell-based
Description: as §1, §2

[13] = tested on: HaCaT human epidermal keratinocytes; format: cell-based; conditions: 24 h
Description: (§3) Since this type of IL-AMP conjugate is being developed for its potential interest to address infected skin lesions, a preliminary assessment of the toxicity of both the conjugate and the parent peptide towards HaCaT human epidermal keratinocytes was carried out by the 3-(4,5-dimethylthiazol-2-yl)-2,5-diphenyltetrazolium bromide (MTT) assay, as previously described by us. […] This activity was assessed in two different ways: (i) inhibition of biofilm formation, and (ii) effect on a preformed biofilm. For evaluation of the inhibition of biofilm formation, both conjugate and parent peptide were tested at MIC and sub-inhibitory concentrations (½×MIC and at ¼×MIC) following previously established procedures, and the mass of biofilm formed at these concentrations was assessed through the crystal violet assay. […] Relevantly, the absorbance measured for the control (absence of test compounds) provides confirmation that the bacterial strain used is a good biofilm producer.
The cytotoxicity of peptides to HaCat cells was evaluated using the standard MTT assay. Briefly, cells were seeded at a density of 4 × 10^4 cells/mL, respectively, in 96-well plates and incubated at 37 °C in a 5% CO2 atmosphere. […] Absorbance was read at 570 nm in FlexStation®3 Multi-Mode Microplate Reader (Molecular Devices, San Jose, CA, USA).

[14] = tested on: preformed biofilms of KP010 (MDR clinical isolate of K. pneumoniae); experiment: Effect on preformed biofilms, OD600 of planktonic phase; format: cell-based, Klebsiella pneumoniae; conditions: 20×MIC, 24 h at 37 °C, untreated biofilms 0.740 ± 0.047, mean ± SD of three independent experiments in triplicate
Description: Biofilm proliferation was determined by measuring the optical density (OD) of the planktonic phase of the biofilms, both treated with the test compounds and the untreated control. […] This improvement, afforded by the insertion of the imidazolium motif, is in line with previous reports of enhanced antibacterial activity when combining imidazolium ILs with non-peptide antibiotics, like ampicillin, including against resistant bacterial strains.
To assess the effects of test compounds on 48 h preformed biofilms of KP010, the biofilms were first grown in TSB from a starting inoculum of 1 × 10^6 CFU/mL in 96-well microtiter plates. After 48 h of incubation at 37 °C, the planktonic cells were removed, and the wells were rinsed and filled with the test compound at a 20× MIC concentration. The optical density at 600 nm was measured at time 0 and after incubation for 24 h at 37 °C. The reduction in the biofilm proliferation was calculated in comparison to the respective non-treated biofilms. Three independent experiments were performed in triplicate.

[15] = tested on: K. pneumoniae KP010 biofilms; experiment: Inhibition of biofilm formation, crystal violet assay; format: cell-based, Klebsiella pneumoniae; conditions: KP010, TSB, crystal violet absorbance at 595 nm, three independent experiments in triplicate
Description: as §3
The ability of the test compounds to inhibit the biofilm formation by KP010 (a MDR clinical isolate of K. pneumoniae) was assessed at the respective MIC, ^1/2×MIC and ^1/4×MIC values in tryptic soy broth (TSB) using the crystal violet assay as previously reported. […]
Figure 1 Effects of 3.1-PP4 and MeIm-3.1-PP4 on formation of K. pneumoniae KP010 biofilms (biomass quantification by crystal violet absorbance at 595 nm). […]

| Compound | MIC [1] | MIC (E. coli ATCC 25922) | MIC [2] | MIC [3] | MIC [4] | remaining at 24 h, 10 mM (tyrosinase) [%] | MIC [5] | MIC [6] | MIC (P. aeruginosa ATCC 27853) | MIC [7] | MIC [8] | MIC [9] | MIC (S. aureus ATCC 25923) | MIC [10] | MIC [11] | MIC [12] | IC50 [13] [µM] | OD600 of planktonic phase of peptide-treated biofilms [14] | biofilm formed at MIC ([15]; at MIC) | biofilm biomass formed at sub-inhibitory concentrations ([15]; at ½×MIC and ¼×MIC) |
| --- | --- | --- | --- | --- | --- | --- | --- | --- | --- | --- | --- | --- | --- | --- | --- | --- | --- | --- | --- | --- |
| CC(C)C[C@H](NC(=O)[C@H](CCCCN)NC(=O)[C@H](CCCCN)NC(=O)Cn1cc(Cn2cc[n+](C)c2)nn1)C(=O)N[C@@H](CC(C)C)C(=O)N[C@@H](CCCCN)C(=O)N[C@@H](Cc1c[nH]c2ccccc12)C(=O)N[C@@H](CC(C)C)C(=O)N[C@@H](CC(C)C)C(=O)N[C@@H](CCCCN)C(=O)N[C@@H](CC(C)C)C(=O)N[C@@H](CC(C)C)C(=O)N[C@@H](CCCCN)C(=O)N[C@H](C(=O)N[C@H](C(=O)N[C@@H](CCCCN)C(=O)N[C@@H](CO)C(N)=O)[C@@H](C)O)[C@@H](C)O [MeIm-3.1-PP4] (X1-KKLLKWLLKLLKTTKS-NH2) | 1.5 (0.7) μg/mL | 0.8 (0.4) μg/mL | 1.5 (0.7) μg/mL | 3.1 (1.4) μg/mL | 1.5 (0.7) μg/mL | ~84 | 1.5 (0.7) μg/mL | 0.8 (0.4) μg/mL | 1.5 (0.7) μg/mL | 3.1 (1.4) μg/mL | 6.2 (2.9) μg/mL | 49.6 (23.1) μg/mL | 24.8 (11.6) ^a μg/mL | 12.4 (5.8) μg/mL | 99.3 (46.3) μg/mL | 3.1 (1.4) μg/mL | 19.4 ± 0.2 | 0.497± 0.050 | only a little amount of biofilm was formed | lower than the control |
| KKLLKWLLKLLKTTKS-NH2 [3.1-PP4] | 1.3 (0.7) μg/mL | 1.3 (0.7) μg/mL | 1.3 (0.7) μg/mL | 1.3 (0.7) μg/mL | 0.6 (0.3) μg/mL | – | 1.3 (0.7) μg/mL | 1.3 (0.7) μg/mL | 2.3 (1.2) μg/mL | 1.3 (0.7) μg/mL | 2.3 (1.2) μg/mL | 2.3 (1.2) μg/mL | 10.3 (5.3) ^a μg/mL | 10.3 (5.3) μg/mL | 41.3 (21.3) μg/mL | 2.3 (1.2) ^a μg/mL | 34.2 ± 0.5 | – | – | – |
